These are literature values, as cited in paper PMC5572576 (The Lancet. Oncology, 2017).

Where two headings read alike, the source gives them in different places.

Series [1] has as its system patients with R/R AML. The conditions noted are these: cited from earlier work.
For series [2], the system named is patients with R/R AML. The conditions noted are these: cited from earlier work. This is another data set of the same source.
In series [3] the test system is patients with newly diagnosed AML aged <60 years. The settings on record: added to intensive chemotherapy; cited from earlier work.

With `CO[C@@H]1[C@H](N(C)C(=O)c2ccccc2)C[C@H]2O[C@]1(C)n1c3ccccc3c3c4c(c5c6ccccc6n2c5c31)C(=O)NC4` [midostaurin], the CR result in the series with patients with R/R AML [1] is given as “CR was not achieved”. Moreover, the “Patients with a reduction in blast counts” value in the series on patients with R/R AML [1] (patients with FLT3WT) was 42%; with patients with R/R AML [1] (patients with FLT3 mutations), 71%.

Consider `CC(C)(C)c1cc(NC(=O)Nc2ccc(-c3cn4c(n3)sc3cc(OCCN5CCOCC5)ccc34)cc2)no1` [quizartinib], for which the “Median OS” value in the series with patients with R/R AML [2] (FLT3-ITD subgroup) was 18 weeks; in the series on patients with R/R AML [2] (entire study population), 14 weeks.

Regarding `CNC(=O)c1cc(Oc2ccc(NC(=O)Nc3ccc(Cl)c(C(F)(F)F)c3)cc2)ccn1` [sorafenib], in series [3], the “3-year event-free survival (EFS) rate” value is 40%.
